In patent publication US20160175249A1, “Liposomes Containing Oligopeptide Fragments of Myelin Basic Protein, a Pharmaceutical Composition and a Method for Treatment of Multiple Sclerosis” (LIPOXEN TECHNOLOGIES LIMITED, priority 2009, published 2016):

Experiments:
EAE-induced DA rats [1] = assay: EAE-induced DA rat model, paralysis score and mortality (DA-EAE-28-01, Example 12); assay type: in vivo; settings: 54 EAE induced DA rats; daily s.c. injection, 6 total; peptide dose 50 μg (mixtures 150 μg); deaths/N
Method: Each of the seven formulations being evaluated was provided as a lyophilized powder and stored at 4° C. Rehydration of each daily group dose was done with water for injection according to Table 6. MBP peptide formulations were re-suspended in water for injection (Cure Medical) and copaxone (Teva LTD) was diluted with Saline to a final concentration of 150 μg/mL. Each subject animal was administered the test formulation for 6 consecutive days by subcutaneous injection.
(§1) 9 week old Dark Agouti (DA) female rats (Harlan Laboratories, Inc.), weighing between 125 and 145 grams were used as the test subjects. The health status of the animals used in this study was examined on arrival. Only animals in good health were acclimatized to laboratory conditions and were used in the study. Animals were provided Protein Rodent Diet (Teklad) ad libitum and free access to drinking water. Animals were housed in a controlled environment at between 20° C. and 24° C. with a relative humidity of 30-70% and a 12 hr light/12 hr dark cycle. Animals were randomly assigned to their respective test group. This study was performed following the review by the Committee for Ethical Conduct in the Care and Use of Laboratory Animals of the Assaf Harofeh medical center, Beer Yaakov, Ethical Committee number: 68/2009.
For induction of EAE, rats were intradermally injected at the base of the tail with a total volume of 200 μl of inoculum containing 50 μg of MBP(63-81) (ANASPEC), in saline mixed (1:1) with CFA, (IFA, Sigma) and 1 mg Mt (strain H37 RA; Difco Laboratories, Detroit, Mich.).
The rats were evaluated up daily starting 24 hours after immunization. […]
7-10 days post EAE induction, 54 animals were divided to 9 groups (6 rats in each), and blood was collected from 2 rats of each group before the initiation of the treatment. […] The animals were maintained and evaluated until day 28th post EAE-induction. […]
Animals were observed individually and clinical signs were recorded once daily during all study periods. […] The body weight of each animals was determined daily during all study periods. […]

EAE-induced DA rats [2] = assay: EAE-induced DA rat model, paralysis score and mortality (DA-EAE-28-05, Example 14); assay type: in vivo; settings: versus water control (Group 1); days 1-4 post-treatment; daily s.c., 6 total; n=6
Method: Each of the four MBP peptide formulations being evaluated were provided as lyophilized powders and stored at 4° C. Each formulation was rehydrated in water for injection according to Table 13. Copaxone (Teva LTD) was diluted with Saline to a final concentration of 720 μg/mL. Each subject animal was administered the test formulation for 6 consecutive days by subcutaneous injection.
as §1, with “8-9” for “9”, “110” for “125”, “food” for “Protein Rodent Diet (Teklad)”, “This study was performed following the review by the Committee for Ethical Conduct in the Care and Use of Laboratory Animals of the Assaf Harofeh medical center, Beer Yaakov, Ethical Committee number: 68/2009.” left out
The rats were evaluated up daily starting 24 hours after immunization. […] The animals were maintained and evaluated until day 28th post EAE-induction. […]
Animals were observed individually and clinical signs were recorded once daily during all study periods. […] The body weight of each animals was determined daily during all study periods.

Question: With glatiramer acetate [copaxone] as the substance, how does the “Mortality Rate” value (EAE-induced DA rats [1]) read?
Answer: 2/6

Question: What about the paralysis score (EAE-induced DA rats [2]) of the same substance?
Answer: non-statistically significant difference (tendency)
